Measured values published in patent US20160138077A1, “MONITORING AND ASSESSING DEACETYLASE ENZYME ACTIVITY” (THE GENERAL HOSPITAL CORPORATION, priority 2013, published 2016).

Columns and labels:
Format in all cases: biochemical
[1] = biological target: T1, HDAC1 (Homo sapiens, UniProt Q13547); test: HDAC1 IC50 (Trypsin-coupled assay and Caliper endpoint assay); settings: competitive inhibition with a peptide substrate
T1 construct: purchased Cayman Chemicals
Method: HP-1 and HP-2 IC50 values for HDAC1 were determined using the Trypsin-coupled assay as well as the Caliper endpoint assay. HP-1 and HP-2 IC50 values for HDAC2, HDAC3, HDAC6 and HDAC8 were determined with the Caliper endpoint assay.
In vitro HDAC 1 end point enzymatic assays were performed in optimized 96-well format as previously described^3,4 with the following modifications. Reactions were performed in volume of 120 uL with 30 ng of full-length, recombinant HDAC1 (BPS Biosciences). TCEP was excluded from the assay buffer. HDAC1 was pre-incubated with varying concentrations of HP-1 or HP-2, or DMSO vehicle for 30 minutes. Fluorophore-conjugated acetyl-lysine tripeptide substrate was added at a concentration equivalent to the substrate Km, 11 uM, and the deacetylation reaction was allowed to run for 45 minutes at RT. […] Fluorescence intensity of the aminomethylcoumarin liberated by deacetylase and trypsin enzymatic activity was monitored at 460 nm using a multilabel plate reader (EnVision, Perkin-Elmer) every 5 minutes until stable, about 25 minutes. […]
IC50 measurements. HP-1 and HP-2 IC50 values for HDAC1 were determined using the Trypsin-coupled assay as well as the Caliper endpoint assay. HP-1 and HP-2 IC50 values for HDAC2, HDAC3, HDAC6 and HDAC8 were determined with the Caliper endpoint assay (full experimental details in Example 1).

[2] = biological target: T1, HDAC1; test: LCMS characterization of enzymatic deacetylation by HDAC1; settings: 5 μM probe, 12 hours at 37° C.
Method: The enzymatic cleavage of HP-1 and HP-2 was analyzed by performing LCMS assays with HeLa nuclear extract (AnaSpec), HeLa whole cell lysate (Santa Cruz Inc.), and the following purified HDAC isoforms: 1, 2, 3, 6 and 8 (HDAC1, 3 and 8 from Cayman Chemicals and HDAC2 and 6 provided by Dr. Stephen Haggarty). Solutions containing (i) vehicle with DMSO in HDAC buffer, (ii) 5 μM probe in HDAC buffer, (iii) 5 μM probe and HDAC enzyme/HeLa nuclear extract/HeLa whole cell lysate in HDAC buffer, or (iv) 5 μM probe and HDAC enzyme/HeLa nuclear extract/HeLa whole cell lysate pre-incubated with 10 μM SAHA (Provided by Dr. Stephen Haggarty) in HDAC buffer were incubated for 12 hours at 37° C. Following incubation, a 20 μL aliquot of supernatant from each sample was analyzed by LCMS. […] For HP-1, the (M+H)^+ ion for the corresponding aldehyde (8, DHP-1) was detected, which formed following reaction of the initial imine deacetylation product with water. […] The peak area for each detected compound was measured to determine the % deacetylation of each probe. All assay samples were analyzed in triplicate. […]
LCMS characterization of HDAC enzymatic action on HP-1 and HP-2. […] Following incubation, an aliquot of supernatant from each sample was analyzed by LCMS. […] The peak area for each detected compound was measured to determine the % deacetylation of each probe (full experimental details in Example 1).

[3] = biological target: T2, HDAC3 (Homo sapiens, UniProt O15379); test: LCMS characterization of enzymatic deacetylation by HDAC3, incl. cleavage over time (kobs, T1/2); settings: for % HP-1 to DHP-1: 5 μM probe, 12 hours at 37° C.
T2 construct: purchased Cayman Chemicals
Method: The enzymatic cleavage of HP-1 and HP-2 was analyzed by performing LCMS assays with HeLa nuclear extract (AnaSpec), HeLa whole cell lysate (Santa Cruz Inc.), and the following purified HDAC isoforms: 1, 2, 3, 6 and 8 (HDAC1, 3 and 8 from Cayman Chemicals and HDAC2 and 6 provided by Dr. Stephen Haggarty). Solutions containing (i) vehicle with DMSO in HDAC buffer, (ii) 5 μM probe in HDAC buffer, (iii) 5 μM probe and HDAC enzyme/HeLa nuclear extract/HeLa whole cell lysate in HDAC buffer, or (iv) 5 μM probe and HDAC enzyme/HeLa nuclear extract/HeLa whole cell lysate pre-incubated with 10 μM SAHA (Provided by Dr. Stephen Haggarty) in HDAC buffer were incubated for 12 hours at 37° C. Following incubation, a 20 μL aliquot of supernatant from each sample was analyzed by LCMS. Deacetylation of HP-1 and 2 was confirmed by detection of the (M+H)^+.ion following positive electrospray ionization. For HP-1, the (M+H)^+ ion for the corresponding aldehyde (8, DHP-1) was detected, which formed following reaction of the initial imine deacetylation product with water. For HP-2, the […]. ion for the corresponding amine (6, DHP-2) was identified. The peak area for each detected compound was measured to determine the % deacetylation of each probe. All assay samples were analyzed in triplicate. […]
The rate of cleavage of HP-1 by purified HDAC3 was analyzed by performing a LCMS assay. […] Following incubation, a 20 μL aliquot of supernatant from each sample was analyzed by LCMS at t=0, 1, 2, 4, 8, and 12 hours. […] For HP-1, the (M+H)^+ ion for the corresponding aldehyde (8, DHP-1) was detected, which formed following reaction of the initial imine deacetylation product with water. The peak area for each detected compound was measured to determine the % deacetylation of each probe. The observed rate constant was determined using Graphpad by plotting Ln(DHP-1 peak area) versus time. […] All assay samples were analyzed in triplicate. […]
LCMS characterization of HDAC enzymatic action on HP-1 and HP-2. […] Following incubation, an aliquot of supernatant from each sample was analyzed by LCMS. […]

T1 sequence (Q13547 whole entry): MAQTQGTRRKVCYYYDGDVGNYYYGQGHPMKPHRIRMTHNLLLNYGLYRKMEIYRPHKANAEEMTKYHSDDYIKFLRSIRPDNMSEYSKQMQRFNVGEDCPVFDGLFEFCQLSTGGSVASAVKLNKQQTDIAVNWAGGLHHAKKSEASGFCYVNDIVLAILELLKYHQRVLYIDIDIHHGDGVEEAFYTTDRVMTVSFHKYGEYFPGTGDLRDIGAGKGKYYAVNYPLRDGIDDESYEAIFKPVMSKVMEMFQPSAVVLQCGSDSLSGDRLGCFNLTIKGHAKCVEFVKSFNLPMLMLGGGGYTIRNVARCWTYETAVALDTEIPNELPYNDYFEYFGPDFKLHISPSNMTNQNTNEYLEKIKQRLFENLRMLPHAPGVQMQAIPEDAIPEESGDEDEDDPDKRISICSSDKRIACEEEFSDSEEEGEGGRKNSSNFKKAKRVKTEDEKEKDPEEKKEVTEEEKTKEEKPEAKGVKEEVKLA
T2 sequence (O15379 whole entry): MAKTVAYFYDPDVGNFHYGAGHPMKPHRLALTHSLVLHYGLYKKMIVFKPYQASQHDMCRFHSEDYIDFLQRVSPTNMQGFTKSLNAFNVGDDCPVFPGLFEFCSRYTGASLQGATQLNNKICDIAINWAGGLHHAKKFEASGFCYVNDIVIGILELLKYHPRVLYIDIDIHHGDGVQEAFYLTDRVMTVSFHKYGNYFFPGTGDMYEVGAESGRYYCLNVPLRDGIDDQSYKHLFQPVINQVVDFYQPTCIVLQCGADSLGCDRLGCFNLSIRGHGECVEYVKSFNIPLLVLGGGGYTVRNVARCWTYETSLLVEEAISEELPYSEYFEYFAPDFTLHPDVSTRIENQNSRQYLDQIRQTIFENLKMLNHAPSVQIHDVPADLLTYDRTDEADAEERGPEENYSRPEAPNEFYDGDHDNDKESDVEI
T2 sequence (Q9Y618 395-489 partner limits assumed): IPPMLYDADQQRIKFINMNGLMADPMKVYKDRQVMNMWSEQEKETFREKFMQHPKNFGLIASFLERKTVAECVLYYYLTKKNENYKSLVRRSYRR

CC(=O)NC=CCCCCNC(=O)CCCCCNc1ccc([N+](=O)[O-])c2nonc12 [HP-1]
IC50 ([1]; HDAC1, table does not say whether Trypsin-coupled or Caliper assay): 35.8 µM | inhibition of HDAC1 (in words) [1]: weakly inhibit | % HP-1 to DHP-1 ([2]; HDAC1, +SAHA (10 μM pre-incubated)): 0% | % HP-1 to DHP-1 ([2]; HDAC1, −SAHA, maximum detected conversion, 1.5:1 trans:cis mixture): 15% | kobs with HDAC3 (conversion of HP-1 to DHP-1) ([3]; 5 μM HP-1, HDAC3, 37° C., t=0-12 hours, Ln(DHP-1 peak area) versus time): 3.2e-05 ± 6e-06 s⁻¹ | % HP-1 to DHP-1 ([3]; HDAC3, +SAHA (10 μM)): 0% | % HP-1 to DHP-1 ([3]; HDAC3, −SAHA, maximum detected conversion): 93%
